The NIST ThermoML archive (doi:10.1021/je5008394)
Numbers after ± are expanded uncertainties.

Conditions: dynamic light scattering

COC(C)(C)C [2-methoxy-2-methylpropane]
thermal diffusivity [m2/s]
Conditions	Gas	Liquid
303.15 K, 101.33 kPa	–	6.4e-08 ± 1.3e-09
303.15 K, 1500 kPa	–	6.66e-08 ± 1.3e-09
303.15 K, 2500 kPa	–	6.7e-08 ± 1.4e-09
303.15 K, 4000 kPa	–	6.75e-08 ± 1.4e-09
303.15 K, 5500 kPa	–	6.79e-08 ± 1.4e-09
303.15 K, 7000 kPa	–	6.81e-08 ± 1.4e-09
303.15 K, 8500 kPa	–	6.83e-08 ± 1.4e-09
303.15 K, 10000 kPa	–	6.85e-08 ± 1.4e-09
313.15 K, 101.33 kPa	–	6.17e-08 ± 1.2e-09
318.15 K, 1500 kPa	–	6.29e-08 ± 1.3e-09
318.15 K, 2500 kPa	–	6.32e-08 ± 1.3e-09
318.15 K, 4000 kPa	–	6.37e-08 ± 1.3e-09
318.15 K, 5500 kPa	–	6.4e-08 ± 1.3e-09
318.15 K, 7000 kPa	–	6.44e-08 ± 1.3e-09
318.15 K, 8500 kPa	–	6.47e-08 ± 1.3e-09
318.15 K, 10000 kPa	–	6.49e-08 ± 1.3e-09
323.15 K, 101.33 kPa	–	5.87e-08 ± 1.2e-09
333.15 K, 101.33 kPa	–	5.7e-08 ± 1.2e-09
333.15 K, 1500 kPa	–	5.94e-08 ± 1.2e-09
333.15 K, 2500 kPa	–	5.97e-08 ± 1.2e-09
333.15 K, 4000 kPa	–	6e-08 ± 1.2e-09
333.15 K, 5500 kPa	–	6.05e-08 ± 1.2e-09
333.15 K, 7000 kPa	–	6.09e-08 ± 1.2e-09
333.15 K, 8500 kPa	–	6.15e-08 ± 1.2e-09
333.15 K, 10000 kPa	–	6.21e-08 ± 1.3e-09
343.15 K, 101.33 kPa	–	5.42e-08 ± 1.1e-09
348.15 K, 1500 kPa	–	5.62e-08 ± 1.1e-09
348.15 K, 2500 kPa	–	5.63e-08 ± 1.1e-09
348.15 K, 4000 kPa	–	5.68e-08 ± 1.1e-09
348.15 K, 5500 kPa	–	5.72e-08 ± 1.2e-09
348.15 K, 7000 kPa	–	5.78e-08 ± 1.2e-09
348.15 K, 8500 kPa	–	5.85e-08 ± 1.2e-09
348.15 K, 10000 kPa	–	5.92e-08 ± 1.2e-09
353.15 K, 101.33 kPa	–	5.26e-08 ± 1.1e-09
363.15 K, 101.33 kPa	–	5.05e-08 ± 1e-09
363.15 K, 1500 kPa	–	5.33e-08 ± 1.1e-09
363.15 K, 2500 kPa	–	5.34e-08 ± 1.1e-09
363.15 K, 4000 kPa	–	5.38e-08 ± 1.1e-09
363.15 K, 5500 kPa	–	5.43e-08 ± 1.1e-09
363.15 K, 7000 kPa	–	5.5e-08 ± 1.1e-09
363.15 K, 8500 kPa	–	5.57e-08 ± 1.1e-09
363.15 K, 10000 kPa	–	5.68e-08 ± 1.1e-09
373.15 K, 101.33 kPa	–	4.83e-08 ± 1e-09
378.15 K, 1500 kPa	–	5.06e-08 ± 1e-09
378.15 K, 2500 kPa	–	5.07e-08 ± 1e-09
378.15 K, 4000 kPa	–	5.1e-08 ± 1e-09
378.15 K, 5500 kPa	–	5.15e-08 ± 1e-09
378.15 K, 7000 kPa	–	5.23e-08 ± 1.1e-09
378.15 K, 8500 kPa	–	5.32e-08 ± 1.1e-09
378.15 K, 10000 kPa	–	5.44e-08 ± 1.1e-09
383.15 K, 101.33 kPa	–	4.72e-08 ± 1e-09
393.15 K, 101.33 kPa	–	4.64e-08 ± 9e-10
393.15 K, 1500 kPa	–	4.83e-08 ± 1e-09
393.15 K, 2500 kPa	–	4.83e-08 ± 1e-09
393.15 K, 4000 kPa	–	4.86e-08 ± 1e-09
393.15 K, 5500 kPa	–	4.92e-08 ± 1e-09
393.15 K, 7000 kPa	–	4.99e-08 ± 1e-09
393.15 K, 8500 kPa	–	5.09e-08 ± 1e-09
393.15 K, 10000 kPa	–	5.21e-08 ± 1.1e-09
403.15 K, 101.33 kPa	–	4.55e-08 ± 9e-10
403.15 K, 1500 kPa	–	4.68e-08 ± 9e-10
403.15 K, 2500 kPa	–	4.69e-08 ± 9e-10
403.15 K, 4000 kPa	–	4.71e-08 ± 1e-09
403.15 K, 5500 kPa	–	4.77e-08 ± 1e-09
403.15 K, 7000 kPa	–	4.85e-08 ± 1e-09
403.15 K, 8500 kPa	–	4.95e-08 ± 1e-09
403.15 K, 10000 kPa	–	5.08e-08 ± 1e-09
413.1 K, 1500 kPa	–	4.54e-08 ± 9e-10
413.1 K, 2500 kPa	–	4.55e-08 ± 9e-10
413.1 K, 4000 kPa	–	4.58e-08 ± 9e-10
413.1 K, 5500 kPa	–	4.64e-08 ± 9e-10
413.1 K, 7000 kPa	–	4.72e-08 ± 1e-09
413.1 K, 8500 kPa	–	4.82e-08 ± 1e-09
413.1 K, 10000 kPa	–	4.95e-08 ± 1e-09
413.15 K, 101.33 kPa	–	4.48e-08 ± 9e-10
423.15 K, 101.33 kPa	–	4.38e-08 ± 9e-10
423.15 K, 1500 kPa	–	4.42e-08 ± 9e-10
423.15 K, 2500 kPa	–	4.43e-08 ± 9e-10
423.15 K, 4000 kPa	–	4.46e-08 ± 9e-10
423.15 K, 5500 kPa	–	4.51e-08 ± 9e-10
423.15 K, 7000 kPa	–	4.59e-08 ± 9e-10
423.15 K, 8500 kPa	–	4.7e-08 ± 1e-09
423.15 K, 10000 kPa	–	4.83e-08 ± 1e-09
433.15 K, 101.33 kPa	–	4.31e-08 ± 9e-10
433.15 K, 1500 kPa	–	4.32e-08 ± 9e-10
433.15 K, 2500 kPa	–	4.32e-08 ± 9e-10
433.15 K, 4000 kPa	–	4.36e-08 ± 9e-10
433.15 K, 5500 kPa	–	4.41e-08 ± 9e-10
433.15 K, 7000 kPa	–	4.49e-08 ± 9e-10
433.15 K, 8500 kPa	–	4.59e-08 ± 9e-10
433.15 K, 10000 kPa	–	4.72e-08 ± 1e-09
443.15 K, 101.33 kPa	–	4.18e-08 ± 8e-10
443.15 K, 2500 kPa	–	4.23e-08 ± 9e-10
443.15 K, 4000 kPa	–	4.26e-08 ± 9e-10
443.15 K, 5500 kPa	–	4.31e-08 ± 9e-10
443.15 K, 7000 kPa	–	4.39e-08 ± 9e-10
443.15 K, 8500 kPa	–	4.49e-08 ± 9e-10
443.15 K, 10000 kPa	–	4.61e-08 ± 9e-10
453.15 K, 101.33 kPa	2.36e-07 ± 5e-09	4.05e-08 ± 8e-10
453.15 K, 2500 kPa	–	4.15e-08 ± 8e-10
453.15 K, 4000 kPa	–	4.18e-08 ± 8e-10
453.15 K, 5500 kPa	–	4.23e-08 ± 9e-10
453.15 K, 7000 kPa	–	4.3e-08 ± 9e-10
453.15 K, 8500 kPa	–	4.4e-08 ± 9e-10
453.15 K, 10000 kPa	–	4.51e-08 ± 9e-10
455.15 K, 101.33 kPa	2.06e-07 ± 4e-09	–
457.15 K, 101.33 kPa	1.87e-07 ± 4e-09	–
458.15 K, 101.33 kPa	–	3.91e-08 ± 8e-10
458.15 K, 2500 kPa	–	4.11e-08 ± 8e-10
458.15 K, 4000 kPa	–	4.15e-08 ± 8e-10
458.15 K, 5500 kPa	–	4.2e-08 ± 8e-10
458.15 K, 7000 kPa	–	4.27e-08 ± 9e-10
458.15 K, 8500 kPa	–	4.36e-08 ± 9e-10
458.15 K, 10000 kPa	–	4.47e-08 ± 9e-10
459.15 K, 101.33 kPa	1.72e-07 ± 3e-09	–
461.15 K, 101.33 kPa	1.62e-07 ± 3e-09	–
463.15 K, 101.33 kPa	1.54e-07 ± 3e-09	3.86e-08 ± 8e-10
463.15 K, 2500 kPa	–	4.08e-08 ± 8e-10
463.15 K, 4000 kPa	–	4.11e-08 ± 8e-10
463.15 K, 5500 kPa	–	4.16e-08 ± 8e-10
463.15 K, 7000 kPa	–	4.23e-08 ± 9e-10
463.15 K, 8500 kPa	–	4.32e-08 ± 9e-10
463.15 K, 10000 kPa	–	4.43e-08 ± 9e-10
465.15 K, 101.33 kPa	1.47e-07 ± 3e-09	–
467.15 K, 101.33 kPa	1.38e-07 ± 3e-09	–
468.15 K, 101.33 kPa	–	3.66e-08 ± 7e-10
468.15 K, 2500 kPa	–	4.05e-08 ± 8e-10
468.15 K, 4000 kPa	–	4.09e-08 ± 8e-10
468.15 K, 5500 kPa	–	4.14e-08 ± 8e-10
468.15 K, 7000 kPa	–	4.2e-08 ± 8e-10
468.15 K, 8500 kPa	–	4.28e-08 ± 9e-10
468.15 K, 10000 kPa	–	4.38e-08 ± 9e-10
469.15 K, 101.33 kPa	1.31e-07 ± 3e-09	–
471.15 K, 101.33 kPa	1.22e-07 ± 3e-09	–
473.15 K, 101.33 kPa	1.14e-07 ± 2e-09	3.55e-08 ± 7e-10
473.15 K, 2500 kPa	–	4.02e-08 ± 8e-10
473.15 K, 4000 kPa	–	4.06e-08 ± 8e-10
473.15 K, 5500 kPa	–	4.11e-08 ± 8e-10
473.15 K, 7000 kPa	–	4.18e-08 ± 8e-10
473.15 K, 8500 kPa	–	4.25e-08 ± 9e-10
473.15 K, 10000 kPa	–	4.34e-08 ± 9e-10
475.15 K, 101.33 kPa	1.05e-07 ± 2e-09	3.47e-08 ± 7e-10
477.15 K, 101.33 kPa	9.7e-08 ± 2e-09	3.36e-08 ± 7e-10
479.15 K, 101.33 kPa	8.8e-08 ± 2e-09	3.36e-08 ± 7e-10
481.15 K, 101.33 kPa	7.8e-08 ± 2e-09	3.3e-08 ± 7e-10
483.15 K, 101.33 kPa	7e-08 ± 2e-09	3.22e-08 ± 7e-10
483.15 K, 4000 kPa	–	4.02e-08 ± 8e-10
483.15 K, 5500 kPa	–	4.07e-08 ± 8e-10
483.15 K, 7000 kPa	–	4.12e-08 ± 8e-10
483.15 K, 8500 kPa	–	4.19e-08 ± 8e-10
483.15 K, 10000 kPa	–	4.27e-08 ± 9e-10
485.15 K, 101.33 kPa	6.2e-08 ± 1e-09	3.07e-08 ± 6e-10
487.15 K, 101.33 kPa	5.6e-08 ± 1e-09	3.02e-08 ± 6e-10
489.15 K, 101.33 kPa	5e-08 ± 1e-09	2.95e-08 ± 6e-10
491.15 K, 101.33 kPa	4.3e-08 ± 1e-09	2.81e-08 ± 6e-10
493.15 K, 101.33 kPa	3.1e-08 ± 1e-09	2.73e-08 ± 6e-10
493.15 K, 4000 kPa	–	3.99e-08 ± 8e-10
493.15 K, 5500 kPa	–	4.03e-08 ± 8e-10
493.15 K, 7000 kPa	–	4.08e-08 ± 8e-10
493.15 K, 8500 kPa	–	4.14e-08 ± 8e-10
493.15 K, 10000 kPa	–	4.21e-08 ± 9e-10
